This is an account of results in PubChem BioAssay AID1259407 (Chemical Carcinogenesis Research Information System (CCRIS), 2018).

Structures are written as SMILES. Calls of active or inactive are those of the source. How the calls were made is not given here.

For the series, the system named is CCRIS mutagenicity, Ames/micronucleus/aberration tests. Nature of the series: CCRIS mutagenicity studies.

For the compound `Cc1ccc2ccc3ccc(C)cc3c2c1`, the mutagenic call runs as follows: (Test System: AMES SALMONELLA TYPHIMURIUM, Strain/Indicator: TA97, Metabolic Activation: NONE, Method: STANDARD PLATE) “inactive; negative”; (Test System: AMES SALMONELLA TYPHIMURIUM, Strain/Indicator: TA97, Metabolic Activation: RAT, LIVER, S-9, PCB, Method: STANDARD PLATE) “inactive; negative”; (Test System: AMES SALMONELLA TYPHIMURIUM, Strain/Indicator: TA98, Metabolic Activation: NONE, Method: STANDARD PLATE) “inactive; negative”; (Test System: AMES SALMONELLA TYPHIMURIUM, Strain/Indicator: TA98, Metabolic Activation: RAT, LIVER, S-9, PCB, Method: STANDARD PLATE) “active; positive”; (Test System: AMES SALMONELLA TYPHIMURIUM, Strain/Indicator: TA100, Metabolic Activation: NONE, Method: STANDARD PLATE) “inactive; negative”; (Test System: AMES SALMONELLA TYPHIMURIUM, Strain/Indicator: TA100, Metabolic Activation: RAT, LIVER, S-9, PCB, Method: STANDARD PLATE) “inactive; negative”.

For `O[C@@H]1[C@H]2O[C@H]2c2c(ccc3cc4c(ccc5ccccc54)nc23)[C@H]1O`, the mutagenic call is, setting by setting: (Test System: AMES SALMONELLA TYPHIMURIUM, Strain/Indicator: TA98, Metabolic Activation: NONE, Method: PREINCUBATION) “active; positive”; (Test System: AMES SALMONELLA TYPHIMURIUM, Strain/Indicator: TA100, Metabolic Activation: NONE, Method: PREINCUBATION) “active; positive”; (Test System: CHINESE HAMSTER V-79, Strain/Indicator: V-79/8-AZAGUANINE, Metabolic Activation: NONE) “active; positive”.

In the case of `CCC(O)/C=C/C=O` (stereo unspecified), the mutagenic call is, setting by setting: (End Point: IN VITRO CHROMOSOMAL ABERRATIONS, Test System: RAT HEPATOCYTES, Metabolic Activation: NONE) “active; positive”; (End Point: IN VITRO MICRONUCLEUS, Test System: RAT HEPATOCYTES, Metabolic Activation: NONE) “active; positive”.
